Results on four molecules are retold here after ChEMBL document CHEMBL5390317, “Novel Indane-Containing NBTIs with Potent Anti-Gram-Negative Activity and Minimal hERG Inhibition” (ACS Med Chem Lett, 2023).

Converted amounts (≈) assume the structure as drawn. A value given as a limit tells only on which side of the number the result lay.

The subject of series [1] is Acinetobacter baumannii. Briefly: Antibacterial activity against Acinetobacter baumannii ATCC 51432 assessed as inhibition in bacterial growth incubated for 20 to 24 hrs by CLSI based broth microdilution method. It is filed as functional. (In general: Broth dilution looks for growth in wells or tubes with falling amounts of substance.)
In series [2] the target is T1, hERG (KCNH2) (Homo sapiens, UniProt Q12809). Briefly: Inhibition of hERG potassium channel expressed in CHO cells at 10 uM by electrophysiological patch clamp assay relative to control. It is filed as toxicity, cell-based. The following applies: CHO cells expressing hERG. Background: The hERG channel carries a current that helps repolarise heart muscle cells.
Series [3] has as its system Klebsiella pneumoniae. Briefly: Antibacterial activity against Klebsiella pneumoniae ATCC 700603 assessed as inhibition in bacterial growth incubated for 20 to 24 hrs by CLSI based broth microdilution method. It counts as functional.
In series [4] the test system is Escherichia coli. Briefly: Antibacterial activity against Escherichia coli ATCC 25922 assessed as inhibition in bacterial growth incubated for 20 to 24 hrs by CLSI based broth microdilution method. It is filed as functional. The following applies: time 20-24 hrs.
In series [5] the test system is Klebsiella pneumoniae. Briefly: Antibacterial activity against Klebsiella pneumoniae ATCC 10031 assessed as inhibition in bacterial growth incubated for 20 to 24 hrs by CLSI based broth microdilution method. It counts as functional. The following applies: time 20-24 hrs.
The test system of series [6] is Staphylococcus aureus. Briefly: Antibacterial activity against Staphylococcus aureus ATCC 29213 assessed as inhibition in bacterial growth incubated for 20 to 24 hrs by CLSI based broth microdilution method. The following applies: Staphylococcus aureus, ATCC 29213; time 20-24 hrs; read-out: MIC. It counts as functional.
The target of series [7] is T1, hERG (KCNH2). The experiment in a line: (§1) Inhibition of hERG potassium channel expressed in CHO cells by electrophysiological patch clamp assay. It is filed as toxicity, cell-based. The following applies: human, CHO cells expressing hERG.
Series [8] addresses Voltage-gated inwardly rectifying potassium channel KCNH2 (Homo sapiens, UniProt Q12809). The description is as §1. It counts as toxicity, cell-based.
For series [9], the system named is Escherichia coli. Briefly: Antibacterial activity against Escherichia coli K-12 BW25113 deltaTolC assessed as inhibition in bacterial growth incubated for 20 to 24 hrs by CLSI based broth microdilution method. It is filed as functional. As to conditions: time 20-24 hrs.
A further series has as its target DNA gyrase (Escherichia coli, UniProt P0AES4+P0AES6). Briefly: Inhibition of Escherichia coli DNA gyrase incubated for 80 mins by Transcreener ADP2 FI assay. It is filed as protein-complex assay.
Series [10] relates to Escherichia coli. Briefly: Antibacterial activity against Escherichia coli K-12 BW25113 assessed as inhibition in bacterial growth incubated for 20 to 24 hrs by CLSI based broth microdilution method. It is filed as functional.
Series [11] deals with Klebsiella pneumoniae. Briefly: Antibacterial activity against Klebsiella pneumoniae ATCC BAA-2146 assessed as inhibition in bacterial growth incubated for 20 to 24 hrs by CLSI based broth microdilution method. It counts as functional. As to conditions: Klebsiella pneumoniae, ATCC BAA-2146, time 20-24 hrs; read-out: MIC.
In series [12] the test system is Klebsiella pneumoniae. Briefly: Antibacterial activity against Klebsiella pneumoniae ATCC BAA-1705 assessed as inhibition in bacterial growth incubated for 20 to 24 hrs by CLSI based broth microdilution method. As to conditions: time 20-24 hrs. It is filed as functional.
Series [13] is described as follows: Inhibition of Escherichia coli topoisomerase 4 incubated for 120 mins by Transcreener ADP2 FI assay.
Series [14] has as its system Pseudomonas aeruginosa. The experiment in a line: Antibacterial activity against Pseudomonas aeruginosa NCTC 13437 assessed as inhibition in bacterial growth incubated for 20 to 24 hrs by CLSI based broth microdilution method. It is filed as functional.
Series [15] relates to Acinetobacter baumannii. The experiment in a line: Antibacterial activity against Acinetobacter baumannii ATCC 19606 assessed as inhibition in bacterial growth incubated for 20 to 24 hrs by CLSI based broth microdilution method. It is filed as functional. As to conditions: time 20-24 hrs.
The target in series [16] is T1, hERG (KCNH2). Briefly: Inhibition of hERG potassium channel expressed in CHO cells at 1 uM by electrophysiological patch clamp assay relative to control. It counts as toxicity, cell-based. The following applies: CHO cells expressing hERG.
Series [17] has as its system Escherichia coli. The experiment in a line: Antibacterial activity against Escherichia coli ATCC BAA-2340 assessed as inhibition in bacterial growth incubated for 20 to 24 hrs by CLSI based broth microdilution method. It is filed as functional. As to conditions: Escherichia coli, ATCC BAA-2340, time 20-24 hrs; read-out: MIC.
Series [18] relates to Escherichia coli. Briefly: Antibacterial activity against Escherichia coli ATCC 35218 assessed as inhibition in bacterial growth incubated for 20 to 24 hrs by CLSI based broth microdilution method. It counts as functional. As to conditions: Escherichia coli, ATCC 35218, time 20-24 hrs; read-out: MIC.
In series [19] the test system is Pseudomonas aeruginosa. Briefly: Antibacterial activity against Pseudomonas aeruginosa NCTC 11451 assessed as inhibition in bacterial growth incubated for 20 to 24 hrs by CLSI based broth microdilution method. It counts as functional.
For series [20], the system named is Acinetobacter baumannii. The experiment in a line: Antibacterial activity against Acinetobacter baumannii ATCC BAA-747 assessed as inhibition in bacterial growth incubated for 20 to 24 hrs by CLSI based broth microdilution method. It counts as functional.
Series [21] relates to Staphylococcus aureus. Briefly: Antibacterial activity against Staphylococcus aureus ATCC BAA-1556 assessed as inhibition in bacterial growth incubated for 20 to 24 hrs by CLSI based broth microdilution method. It is filed as functional.
For series [22], the system named is Pseudomonas aeruginosa. Briefly: Antibacterial activity against Pseudomonas aeruginosa ATCC 27853 assessed as inhibition in bacterial growth incubated for 20 to 24 hrs by CLSI based broth microdilution method. As to conditions: time 20-24 hrs. It is filed as functional.
Setting [23] is: Acinetobacter baumannii, ATCC 51432, time 20-24 hrs, read-out: MIC.
Where [24] appears, read: Klebsiella pneumoniae, ATCC 700603, time 20-24 hrs, read-out: MIC.
Setting [25] is: Escherichia coli, K-12 BW25113, time 20-24 hrs, read-out: MIC.
[26] abbreviates: Pseudomonas aeruginosa, NCTC 13437, time 20-24 hrs, read-out: MIC.
[27] abbreviates: Pseudomonas aeruginosa, NCTC 11451, time 20-24 hrs, read-out: MIC.
Where [28] appears, read: Acinetobacter baumannii, ATCC BAA-747, time 20-24 hrs, read-out: MIC.
[29] abbreviates: Staphylococcus aureus, ATCC BAA-1556, time 20-24 hrs, read-out: MIC.

Chain of Voltage-gated inwardly rectifying potassium channel KCNH2 (Q12809 whole entry): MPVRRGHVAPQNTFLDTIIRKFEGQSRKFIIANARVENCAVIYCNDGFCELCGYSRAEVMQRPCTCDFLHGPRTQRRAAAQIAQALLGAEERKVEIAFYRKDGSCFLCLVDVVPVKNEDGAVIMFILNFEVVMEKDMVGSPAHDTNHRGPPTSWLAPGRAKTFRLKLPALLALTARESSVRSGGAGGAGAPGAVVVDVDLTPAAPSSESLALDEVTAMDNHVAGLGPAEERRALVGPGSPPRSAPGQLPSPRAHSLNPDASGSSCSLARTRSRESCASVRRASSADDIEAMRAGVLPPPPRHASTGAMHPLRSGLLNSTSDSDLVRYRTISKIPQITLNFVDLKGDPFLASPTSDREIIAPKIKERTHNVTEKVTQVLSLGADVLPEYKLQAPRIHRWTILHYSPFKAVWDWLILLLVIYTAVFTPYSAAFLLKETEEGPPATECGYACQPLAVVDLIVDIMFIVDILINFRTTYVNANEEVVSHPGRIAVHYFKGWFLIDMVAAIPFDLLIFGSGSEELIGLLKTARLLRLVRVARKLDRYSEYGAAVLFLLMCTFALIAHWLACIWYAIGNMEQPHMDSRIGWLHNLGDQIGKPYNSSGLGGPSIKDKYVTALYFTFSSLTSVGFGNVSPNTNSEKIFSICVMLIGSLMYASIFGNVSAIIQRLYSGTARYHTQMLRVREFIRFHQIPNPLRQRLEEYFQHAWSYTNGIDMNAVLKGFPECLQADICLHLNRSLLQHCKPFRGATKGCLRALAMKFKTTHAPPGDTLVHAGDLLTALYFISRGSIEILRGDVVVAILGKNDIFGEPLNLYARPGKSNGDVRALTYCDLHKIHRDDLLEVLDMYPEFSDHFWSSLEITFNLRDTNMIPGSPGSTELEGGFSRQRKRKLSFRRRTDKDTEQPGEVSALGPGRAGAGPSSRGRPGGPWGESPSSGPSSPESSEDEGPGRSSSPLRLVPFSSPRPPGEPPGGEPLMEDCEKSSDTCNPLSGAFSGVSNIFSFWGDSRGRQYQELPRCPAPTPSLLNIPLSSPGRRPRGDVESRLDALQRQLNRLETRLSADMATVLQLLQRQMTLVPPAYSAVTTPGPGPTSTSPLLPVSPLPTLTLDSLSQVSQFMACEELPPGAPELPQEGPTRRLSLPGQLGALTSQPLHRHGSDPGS
T1 sequence (Q12809 whole entry): as above

Turning to `CS(=O)(=O)NCCOc1cc(C#N)c2c(c1)CC(CNCCC1CN(c3ccc4c(n3)NC(=O)CO4)C(=O)O1)C2` (centres undefined), the MIC with Acinetobacter baumannii [1] (setting [23]) is 4 µg/mL (≈ 7.01 µM); in the series on Klebsiella pneumoniae [3] (setting [24]), 16 µg/mL (≈ 28 µM); in the series on Escherichia coli [4], 1 µg/mL (≈ 1.75 µM); in the series on Klebsiella pneumoniae [5] it was at most 0.06 µg/mL; in the series on Staphylococcus aureus [6], 0.25 µg/mL (≈ 0.438 µM); in the series with Escherichia coli [9], at most 0.06 µg/mL. In addition, the MIC with Escherichia coli [10] (setting [25]) worked out at 0.5 µg/mL (≈ 0.876 µM); in the series with Klebsiella pneumoniae [11] it was 16 µg/mL (≈ 28 µM); in the series with Klebsiella pneumoniae [12], 16 µg/mL (≈ 28 µM); in the series on Pseudomonas aeruginosa [14] (setting [26]), 4 µg/mL (≈ 7.01 µM); in the series with Acinetobacter baumannii [15], 4 µg/mL (≈ 7.01 µM); in the series with Escherichia coli [17] it was 2 µg/mL (≈ 3.5 µM). The MIC with Escherichia coli [18] amounted to 1 µg/mL (≈ 1.75 µM); in the series with Pseudomonas aeruginosa [19] (setting [27]) it was 4 µg/mL (≈ 7.01 µM); with Acinetobacter baumannii [20] (setting [28]), 2 µg/mL (≈ 3.5 µM); in the series on Staphylococcus aureus [21] (setting [29]) it was 0.5 µg/mL (≈ 0.876 µM); with Pseudomonas aeruginosa [22], 1 µg/mL (≈ 1.75 µM). Besides, on hERG (KCNH2) [2], 10 µM produced 30% inhibition. On hERG (KCNH2) [7], this molecule showed a concentration for an effect of 20% (IC20) of 5.9 µM. In addition, the IC50 in [8] is over 20 µM; on DNA gyrase it was 0.026 µM; in series [13], 0.032 µM. Besides, the inhibition at 1 µM on hERG (KCNH2) [16] is under 1%.

`C[C@@H](C(=O)Nc1cc(F)c2c(c1)CC(CNCCC1CN(c3cnc4c(n3)NC(=O)CO4)C(=O)O1)C2)N(C)C` (stereo in doubt; 2i): the minimum inhibitory concentration (MIC) with Acinetobacter baumannii [1] (setting [23]) was 8 µg/mL (≈ 14.8 µM); in the series on Klebsiella pneumoniae [3] (setting [24]) it was 2 µg/mL (≈ 3.69 µM); with Klebsiella pneumoniae [5], at most 0.06 µg/mL; with Staphylococcus aureus [6], 0.25 µg/mL (≈ 0.462 µM); in the series on Escherichia coli [9], at most 0.06 µg/mL; in the series with Escherichia coli [10] (time 20-24 hrs) it was “<=0.06 ug ml-1”. The MIC with Klebsiella pneumoniae [11] is 8 µg/mL (≈ 14.8 µM); in the series on Pseudomonas aeruginosa [14] (setting [26]), 2 µg/mL (≈ 3.69 µM); with Escherichia coli [17] it was 0.125 µg/mL (≈ 0.231 µM); in the series on Escherichia coli [18], 0.125 µg/mL (≈ 0.231 µM); in the series with Pseudomonas aeruginosa [19] (setting [27]) it was 4 µg/mL (≈ 7.39 µM); in the series with Acinetobacter baumannii [20] (setting [28]) it was 0.25 µg/mL (≈ 0.462 µM). In addition, in the series on Staphylococcus aureus [21] (setting [29]), the MIC was determined as 1 µg/mL (≈ 1.85 µM). Also, the 20% effect level on hERG (KCNH2) [7] (IC20) was put at 33 µM. The molecule also gave an IC50 in [8] of 105 µM.

Regarding `CC(N)COc1cc(F)c2c(c1)CC(CNCCC1CN(c3ccc4c(n3)NC(=O)CO4)C(=O)O1)C2` (centres undefined), the MIC is 2 µg/mL (≈ 4 µM) with Acinetobacter baumannii [1] (setting [23]); 2 µg/mL (≈ 4 µM) with Klebsiella pneumoniae [3] (setting [24]); 0.25 µg/mL (≈ 0.5 µM) in the series with Escherichia coli [4]; at most 0.06 µg/mL in the series with Klebsiella pneumoniae [5]; at most 0.06 µg/mL in the series on Staphylococcus aureus [6]; at most 0.06 µg/mL in the series with Escherichia coli [9]. Also, the MIC was at most 0.06 µg/mL in the series on Escherichia coli [10] (setting [25]); 2 µg/mL (≈ 4 µM) with Klebsiella pneumoniae [11]; 1 µg/mL (≈ 2 µM) in the series with Klebsiella pneumoniae [12]; 1 µg/mL (≈ 2 µM) with Pseudomonas aeruginosa [14] (setting [26]); 2 µg/mL (≈ 4 µM) with Acinetobacter baumannii [15]; 0.25 µg/mL (≈ 0.5 µM) with Escherichia coli [17]. Besides, the MIC amounted to 0.25 µg/mL (≈ 0.5 µM) in the series with Escherichia coli [18]; 2 µg/mL (≈ 4 µM) in the series with Pseudomonas aeruginosa [19] (setting [27]); 0.125 µg/mL (≈ 0.25 µM) in the series with Acinetobacter baumannii [20] (setting [28]); 0.125 µg/mL (≈ 0.25 µM) in the series on Staphylococcus aureus [21] (setting [29]); 0.25 µg/mL (≈ 0.5 µM) in the series on Pseudomonas aeruginosa [22]. This molecule displayed an inhibition at 10 µM against hERG (KCNH2) [2] of 3.9%. For the same molecule, the 20% effect concentration (IC20) against hERG (KCNH2) [7] is over 10 µM. Further, the IC50 in series [8] is over 20 µM; against DNA gyrase, 0.047 µM; in series [13] it was 0.039 µM. The inhibition at 1 µM against hERG (KCNH2) [16] was under 1%.

On to `C[C@H](C(=O)Nc1cc(F)c2c(c1)CC(CNCCC1CN(c3cnc4c(n3)NC(=O)CO4)C(=O)O1)C2)N(C)C` (stereo in doubt; 2h), for which the MIC in the series with Acinetobacter baumannii [1] (time 20-24 hrs) was determined as 8 µg/mL (≈ 14.8 µM); in the series on Klebsiella pneumoniae [3] (time 20-24 hrs), 2 µg/mL (≈ 3.69 µM); in the series with Pseudomonas aeruginosa [14] (time 20-24 hrs), 4 µg/mL (≈ 7.39 µM); with Pseudomonas aeruginosa [19] (time 20-24 hrs), 4 µg/mL (≈ 7.39 µM); in the series with Acinetobacter baumannii [20] (time 20-24 hrs), 0.125 µg/mL (≈ 0.231 µM); with Staphylococcus aureus [21] (time 20-24 hrs) it was 1 µg/mL (≈ 1.85 µM). Moreover, half-maximal inhibition in series [8] (IC50) was put at 126 µM. This molecule gave an IC20 in [8] (human, cho) of 55 µM.

As usually defined, the MIC is the lowest concentration found to suppress growth. What is called inhibition is how much of the control response was suppressed. Low values mean little suppression, high ones strong suppression. What is called IC20 is the concentration at which the effect reaches the 20% level. Broadly, the IC50 is the midpoint of a concentration-inhibition curve. Low readings indicate inhibition by little substance, high ones a need for much substance.
